These are literature values, as cited in patent US20070110909A1, “Reduction or elimination of microbial growth and biofouling of salted wet biomass byproducts” (priority 2005, published 2007).

SMILES strings stand for the structures.

The subject of one data set is rats, mice and hamsters. The following applies: fore-stomachs of rats.
The subject of the next data set is animal tests. The conditions noted are these: birth defects in rats.

As to `COc1ccc(O)c(C(C)(C)C)c1` [BHA, Butylated hydroxyanisole], the tumors in animals entry with rats, mice and hamsters is given as “caused cancerous tumors”. Turning to `Cc1cc(C(C)(C)C)c(O)c(C(C)(C)C)c1` [BHT, Butylated hydroxytoluene], the “toxic effects in animal tests” value in the data set with animal tests was “caused liver cancer and lung tumors, increased blood cholesterol, reduced growth rates and body weight”.
